Entries after “also recorded” stand apart in the source; their conditions may differ. Where no end group is shown, it is not given here. [ ]: non-standard residue; d: D form. Nva = CCC[C@H](N)C(=O)O
Legend:
[1] = test system: D2.mdx mice; test: H&E staining, damaged areas of muscle; assay type: in vivo, mouse
Experimental: D2.mdx mice were treated with ALY688 at two different dosages; high dose (HD; 15 mg/kg body weight/day) or low dose (LD; 3 mg/kg body weight/day) dissolved in saline. A separate group of mice were treated with saline alone (VEH, vehicle). Treatment was provided via subscapular subcutaneous injections from 7 days of age to 28-30 days. […] At 28-30 days of age, mice were anaesthetized with isoflurane vaporized in medical air (21% oxygen) at a 2 L/min flow rate. Due to tissue limitations in limb muscle, certain measures were performed separately in tibialis anterior and quadriceps across several phases of breeding. […]
Samples collected were cut into 8 µm thick serial cross sections with a cryostat (Thermo Fisher Scientific; Kalamazoo, MI, United States;) maintained at −20° C. on Fisherbrand Superfrost Plus slides (Thermo Fisher Scientific). […] Centralized nuclei, a marker of regenerating fibres, was analyzed by selecting five evenly spaced images throughout the muscle and averaging the result. Areas of damage (fibres with fragmented sarcoplasm and immune cell infiltration) were expressed as a percentage of the entire muscle section. Images were taken using EVOS M7000 imager (Thermo Fisher Scientific) using 20× magnification and analyzed using ImageJ (http://imagej.nih.gov/ij/). […] These images were then analyzed with ImageJ for minimal Feret's diameter as an index of muscle atrophy.

[2] = test system: D2.mdx mice; test: Novel object recognition test; assay type: in vivo, mouse; details: 15 mg/kg b.w. daily, days 7 to 28 of age
Experimental: Male D2.mdx mice originated from a colony maintained at York University (Toronto, Canada) and sourced from Jackson Laboratories (Stock Number 013141, Bar Harbor, United States). Mice were treated daily from days 7 to 28 of age with ALY688 at 15 mg/kg b.w. (D2.mdx-ALY688) or saline control (D2.mdx-VEH). This age was chosen given it captures an early stage of disease progression in cardiac and skeletal muscle. Mice were sacrificed 20-24 hr after the last dose. Breeding of wildtype mice was unsuccessful. Instead, three-week-old wildtype DBA/2J WT mice (D2A) were obtained from Jackson Laboratories (Stock number 000671, Bar Harbor, United States) and allowed to acclimatize for one week before sacrifice. Mice were housed in standard 12:12-hr light:dark cycles and were allowed access to standard rodent chow and water ad libitum. 4 days prior to sacrifice, all groups underwent novel object recognition acclimatization and testing as described below. Mice were anesthetized under 5% isoflurane vaporized in medical air (21% oxygen) at a flow rate of 2 L/min and then maintained at 2-3% prior to euthanasia by exsanguination. […]
The novel object recognition test (NOR) was performed as previously described in literature. […] Sessions were recorded with a cell-phone video camera secured above the apparatus. […] Discrimination ratio (DR) was calculated as follows: DR=(Time(object 2)−Time(object 1))/Total time.

[dN]IP[Nva]LY[dS]FA[dS]-NH2 [ALY688] was tested, and the “damaged areas (H&E)” value ([1]; diaphragm, all D2.mdx groups (VEH, LD, HD)) was 3.7-to-3.9 fold change vs WT, the “damaged areas (H&E)” value ([1]; tibialis anterior, all three D2.mdx groups) was 17.2-to-22.6 fold increase vs WT and the “recognition memory (discrimination index, NOR test)” value [2] was “completely prevented; also recorded: improved recognition memory; also recorded: normalized”.

Reference: patent US20240382564A1, “Methods and Compositions for Treating Muscular Dystrophy and Memory Impairment” (Allysta Pharmaceuticals, Inc., priority 2023, published 2024)
